Source: patent US20080031868A1, “HUMAN LYSOZYME MEDICINE, ITS MANUFACTURING METHOD AND APPLICATION THEREOF” (priority 2005, published 2008)
≈ marks a conversion by molar mass, not a printed value.

How the values were obtained:
No. 04 Coronavirus [1] = assay: Inhibition on No. 04 Coronavirus in HELA cells (CPE method); assay type: cell-based; settings: 2 h
Description: HELA cells were seeded on 96-well cultivation plates at the concentration of 400,000/ml and grown to monolayer at 37° C. in 5% CO2 incubator for 24 hours. After removal of cultivation liquid, coronavirus liquid were added to HELA cells and absorbed at 37° C. in 5% CO2 incubator for 2 hours. […] At the same time reference cells and reference virous were cultivated at 37° C. in 5% CO2 incubator for 5 to 7 days. Inverted microscope was used everyday to observe the cytopathic effect (CPE) of virus. The determination were ended according to the appearance of “+++-++++”. […] The determination was repeated three times.

HELA cell = assay: Toxicity to HELA cell (CPE, Reed-Muench); settings: 6 days
Description: 1. Determination of the Toxicity of Recombinant Human Lysozyme to HELA Cell:
HELA cells were seeded on 96-well culture plates at the concentration of 400,000/mi and grown at 37° C. in a 5% CO2 incubator for 2 hours. 100 μl recombinant human lysozyme which were double-diluted from 6000 ug/ml to 11.7 ug/ml and positive reference medicine which were double-diluted from 6000 ug/ml to 11.7 ug/ml were respectively added to 3 wells per concentration. At the same time the reference cells were cultivated at 37° C. in a 5% CO2 incubator for 6 days. Inverted microscope was used everyday to observe the cytopathic effect (CPE). The cytopathic effect under 25% was recorded as “+”, the cytopathic effect under 26%˜50% was recorded as “++”, the cytopathic effect under 51%˜75% was recorded as “+++” and the cytopathic effect under 76%˜100% was recorded as “++++”. Drug median toxic dose (TD50) and minimum toxic dose (TD0) were calculated by using Reed-Muench method.

No. 04 Coronavirus [2] = assay: organism not typed; assay type: cell-based
Description: HELA cells were seeded on 96-well cultivation plates at the concentration of 400,000/ml and grown to monolayer at 37° C. in 5% CO2 incubator for 24 hours. […] Then 100 TCID50coronavirus liquid were added to HELA cells. At the same time reference cell and reference virous were cultivated at 37° C. in 5% CO2 incubator for 5 to 7 days. At the same time normal cell reference and virous reference were cultivated at 37° C. in 5% CO2 incubator for 5 to 7 days. Inverted microscope was used everyday to observe the cytopathic effect (CPE) of virus. The determination were ended according to the appearance of “+++-++++”. […] The determination was repeated three times.

[3] = read-out: minimum inhibitory concentration (MIC)
[4] = HeLa, read-out: median inhibitory concentration (IC50)

Nc1nc(O)c2ncn(COC(CO)CO)c2n1 [Ganciclovir, reference compound]
MIC (No. 04 Coronavirus [1]; [3]): 23.4 µg/mL (≈ 91.8 µM)
IC50 (No. 04 Coronavirus [1]; [4]): 11.7 µg/mL (≈ 45.8 µM)
minimum toxic dose (TD0) (HELA cell; HELA cells, CPE, Reed-Muench): 6000 ± 0 µg/mL
median toxic dose (TD50) (HELA cell; human): 6000 ± 0 µg/mL
IC50 (No. 04 Coronavirus [2]; [4]): 11.7 µg/mL (≈ 45.8 µM)
MIC (No. 04 Coronavirus [2]; [3]): 23.4 µg/mL (≈ 91.8 µM)
